Results reported in patent US11286263B2, “Macrocyclic fluorine substituted indole derivatives” (The Broad Institute, Inc., priority 2017, dated 2022).
Where “and” joins values, the source holds several entries; their conditions need not be identical. Equal entries are not always repeated. Structures can show the parent of a compound that is named as a salt. Where two headings read alike, the source gives them in different places.

Tests used:
[1] = test system: SUDHL5; test: Induction of caspase-3/7 activity, SUDHL5 (Assay 4); format: cell-based; settings: SUDHL5 cells
How it was run: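 DLBCL lines treated with compounds for 3 h at 37° C.; caspase-3/7 activity read by Caspase-Glo 3/7 luminescence. Medium-only background subtracted; EC50 fitted with bottom fixed at 1 and top set to reference compound's maximal induction.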

[2] = test system: SUDHL5; test: Induction of cytotoxicity, SUDHL5 (Assay 6); settings: read-out: IC50 Cytotox SUDHL5 [M] (median), SUDHL5 cells, 5 h, CellTiter-Glo
[3] = biological target: MCL-1 (Homo sapiens (Human), UniProt Q07820, K194A/K197A/R201A); test: Protein-protein interaction assay MCL-1/Noxa BH3 peptide (MCL-1 assay), TR-FRET; format: binding; settings: MCL-1/Noxa BH3 peptide TR-FRET; median
How it was run: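 TR-FRET competition between MBP-MCL-1 (173-321, 1 nM) and biotin-Noxa BH3 peptide (1 nM) with anti-MBP-Eu/streptavidin-XL665; 11 compound levels 0.1 nM–20 μM, 10 min preincubation. Incubated 1 h at 22 °C then overnight at 4 °C, pH 7 Tris buffer. 665/620 ratio normalized to DMSO and no-MCL-1; 4-parameter IC50.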

[4] = test system: MV-4-11; test: Antiproliferation assay MV-4-11 (Assay 7); format: cell-based; settings: MV-4-11 cells, CellTiter-Glo, single determinations, read-out: IC50 Antiproli MV-4-11
How it was run: (§1)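 Cells were incubated with compounds for 72 h at 37°C. Viability was then read by CellTiter-Glo luminescence, and a parallel day 0 plate read the same way gave the time-zero signal.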

[5] = test system: A2780; test: Antiproliferation assay A2780 (Assay 7); format: cell-based; settings: A2780 cells, CellTiter-Glo, single determinations, read-out: IC50 Antiproli A2780
How it was run: as §1

[6] = Homo sapiens, SU-DHL-5, 3 h, Caspase-Glo 3/7, median

Sequence of MCL-1 (Q07820 whole entry K194A/K197A/R201A, looked up): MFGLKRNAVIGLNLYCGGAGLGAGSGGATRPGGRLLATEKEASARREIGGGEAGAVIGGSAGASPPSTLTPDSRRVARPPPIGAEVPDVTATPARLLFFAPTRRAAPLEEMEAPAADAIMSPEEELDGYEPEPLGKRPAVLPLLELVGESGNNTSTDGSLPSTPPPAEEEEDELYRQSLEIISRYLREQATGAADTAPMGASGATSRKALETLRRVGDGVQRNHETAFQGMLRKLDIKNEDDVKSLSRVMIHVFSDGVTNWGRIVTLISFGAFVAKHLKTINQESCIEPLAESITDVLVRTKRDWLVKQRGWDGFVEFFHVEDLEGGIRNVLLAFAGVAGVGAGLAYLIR

| Compound | EC50 ([1]; 3 h, Caspase-Glo 3/7, median) | IC50 [3] | IC50 ([4]; 72 h, listed as 07) | IC50 ([5]; 72 h, listed as 07) | EC50 [1, 6] | IC50 ([4]; Homo sapiens, MV4-11, 72 h) | IC50 ([5]; Homo sapiens, A2780, 72 h) | IC50 ([4]; 72 h) | IC50 ([5]; 72 h) | IC50 ([5]; 72 h, listed as 05) | IC50 ([5]; 72 h, listed as 02) | IC50 [2] | IC50 ([2]; Homo sapiens, SU-DHL-5, 5 h) |
| --- | --- | --- | --- | --- | --- | --- | --- | --- | --- | --- | --- | --- | --- |
| Cc1nn(C)c2c1-c1c(F)ccc3c(CCCOc4cccc5c4CCC5)c(C(=O)O)n(c13)CCCCOC2 (racemic) [Example 35, (rac)-1-(3-((2,3-dihydro-1H-inden-4-yl)oxy)propyl)-13-fluoro-10,12-dimethyl-4,5,6,7,9,10-hexahydropyrazolo[4′,3′:9,10][1]oxa[6]azacycloundecino[8,7,6-hi]indole-2-carboxylic acid] |  | 0.0013 µM |  |  | 6.2 µM | 12.4 µM | 15 µM |  |  |  |  |  | 7.1e-06 M |
| Cc1cc(OCCCc2c(C(=O)O)n3c4c(c(F)ccc24)-c2c(C)nn(C)c2COCCCC3)cc(C)c1Cl (racemic) [Example 36, (rac)-1-(3-(4-chloro-3,5-dimethylphenoxy)propyl)-13-fluoro-10,12-dimethyl-4,5,6,7,9,10-hexahydropyrazolo[4′,3′:9,10][1]oxa[6]azacycloundecino[8,7,6-hi]indole-2-carboxylic acid] |  | 0.0021 µM |  |  | 3.5 µM | 16.4 µM | 29.5 µM |  |  |  |  |  | 4.3e-06 M |
| CCc1nn(C)c2c1-c1c(F)ccc3c(CCCOc4cccc5ccccc45)c(C(=O)O)n(c13)CCCCOC2 (racemic) [Example 37, (rac)-12-ethyl-13-fluoro-10-methyl-1-(3-(naphthalen-1-yloxy)propyl)-4,5,6,7,9,10-hexahydro-pyrazolo[4′,3′:9,10][1]oxa[6]azacycloundecino[8,7,6-hi]indole-2-carboxylic acid] |  | 0.0012 µM |  |  | 1.7 µM | 8.4 µM | > 33 µM | 6.8 µM and 7.54 µM |  |  |  |  | 2.1e-06 M |
| Cc1nn(C)c2c1-c1c(F)ccc3c(CCCOc4cccc5c4CCCC5)c(C(=O)O)n(c13)CCCCOC2 (racemic) [Example 34, (rac)-13-fluoro-10,12-dimethyl-1-(3-((5,6,7,8-tetrahydronaphthalen-1-yl)oxy)propyl)-4,5,6,7,9,10-hexahydropyrazolo[4′,3′:9,10][1]oxa[6]azacycloundecino[8,7,6-hi]indole-2-carboxylic acid] |  | 0.0013 µM |  |  | 1.8 µM | 11.6 µM | 20.9 µM | 12.3 µM |  |  |  |  | 2.6e-06 M |
| Cc1c2c(nn1C)COCCCCn1c(C(=O)O)c(CCCOc3cccc4c3CCC4)c3ccc(F)c-2c31 (racemic) [Example 19, (rac)-1-(3-((2,3-dihydro-1H-inden-4-yl)oxy)propyl)-13-fluoro-11,12-dimethyl-4,5,6,7,9,11-hexahydropyrazolo[4′,3′:9,10][1]oxa[6]azacycloundecino[8,7,6-hi]indole-2-carboxylic acid] |  | 0.0015 µM |  |  | 0.96 µM | 4.3 µM | 16.5 µM | 2.9 µM and 4.9 µM |  |  |  |  | 1.4e-06 M |
| CCc1nn(C)c2c1-c1c(F)ccc3c(CCCOc4cccc5cc(F)ccc45)c(C(=O)O)n(c13)CCCCOC2 (single isomer, unassigned; enantiomer 1) [Example 39, 3-ethyl-4-fluoro-7-{3-[(6-fluoronaphthalen-1-yl)oxy]propyl}-1-methyl-1,10,11,12,13,15-hexahydropyrazolo[4′,3′:9,10][1,6]oxazacycloundecino[8,7,6-hi]indole-8-carboxylic acid-N-ethylethanamine salt (enantiomer 1)] | 0.56 µM | 0.0008 µM |  |  |  |  |  |  | 4.84 µM |  |  | 6.2e-07 M |  |
| CCc1c2c(nn1C)COC/C=C\Cn1c(C(=O)O)c(CCCOc3cccc4ccccc34)c3ccc(F)c-2c31 (racemic) [Example 5, (rac)-(11Z)-3-ethyl-4-fluoro-2-methyl-7-[3-(naphthalen-1-yloxy)propyl]-2,10,13,15-tetrahydro-pyrazolo[4′,3′:9,10][1,6]oxazacycloundecino[8,7,6-hi]indole-8-carboxylic acid] |  | 0.0023 µM |  |  | 1 µM |  | 25.4 µM |  |  | 28.1 µM and 20.8 µM and 27.7 µM |  |  | 1.5e-06 M |
| Cc1c2c(nn1C)COCCCCn1c(C(=O)O)c(CCCOc3cccc4ccccc34)c3ccc(F)c-2c31 (racemic) [Example 2, (rac)-4-fluoro-2,3-dimethyl-7-[3-(naphthalen-1-yloxy)propyl]-2,10,11,12,13,15-hexahydro-pyrazolo[4′,3′:9,10][1,6]oxazacycloundecino[8,7,6-hi]indole-8-carboxylic acid] |  | 0.0012 µM |  |  | 0.6 µM |  | 13 µM |  |  |  | 12.2 µM and 14.5 µM |  | 1e-06 M |
| Cc1c2c(nn1C)CNCCCCn1c(C(=O)O)c(CCCOc3cccc4ccccc34)c3ccc(F)c-2c31 (single isomer, unassigned; enantiomer 1) [Example 48, 4-fluoro-2,3-dimethyl-7-{3-[(naphthalen-1-yl)oxy]propyl}-10,11,12,13,14,15-hexahydro-2H-pyrazolo[3′,4′:8,9][1,6]diazacycloundecino[10,11,1-hi]indole-8-carboxylic acid (enantiomer 1)] | 1.2 µM | 0.0011 µM |  |  |  |  |  |  | 7.17 µM |  |  | 1.3e-06 M |  |

Further compounds by falling IC50 [3], results first:

| EC50 ([1]; 3 h, Caspase-Glo 3/7, median) | IC50 [3] | IC50 ([4]; 72 h, listed as 07) | IC50 ([5]; 72 h, listed as 07) | EC50 [1, 6] | IC50 ([4]; Homo sapiens, MV4-11, 72 h) | IC50 ([5]; Homo sapiens, A2780, 72 h) | IC50 ([4]; 72 h) | IC50 ([5]; 72 h) | IC50 ([5]; 72 h, listed as 05) | IC50 ([5]; 72 h, listed as 02) | Compound | IC50 [2] | IC50 ([2]; Homo sapiens, SU-DHL-5, 5 h) |
| --- | --- | --- | --- | --- | --- | --- | --- | --- | --- | --- | --- | --- | --- |
|  | 0.0022 µM |  |  | 2.1 µM | 7.67 µM | 15.3 µM | 12.8 µM | 23.5 µM |  |  | CCc1nn(C)c2c1-c1c(F)ccc3c(CCCOc4cccc5ccccc45)c(C(=O)O)n(c13)C/C=C\COC2 (racemic) [Example 11, (rac)-(Z)-12-ethyl-13-fluoro-10-methyl-1-(3-(naphthalen-1-yloxy)propyl)-4,7,9,10-tetrahydro-pyrazolo[4′,3′:9,10][1]oxa[6]azacycloundecino[8,7,6-hi]indole-2-carboxylic acid] |  | 2.3e-06 M |
|  | 0.0017 µM |  |  | 2.9 µM | 11.2 µM | 23.3 µM |  |  |  |  | Cc1nn(C)c2c1-c1c(F)ccc3c(CCCOc4ccc(F)c5ccccc45)c(C(=O)O)n(c13)CCCCOC2 (racemic) [Example 33, (rac)-13-fluoro-1-(3-((4-fluoronaphthalen-1-yl)oxy)propyl)-10,12-dimethyl-4,5,6,7,9,10-hexahydropyrazolo[4′,3′:9,10][1]oxa[6]azacycloundecino[8,7,6-hi]indole-2-carboxylic acid] |  | 3.5e-06 M |
| 0.87 µM | 0.0013 µM |  |  |  |  |  | 1.77 µM and 3.04 µM | 11.2 µM |  |  | (rac)-1-(3-((2,3-dihydro-1H-inden-4-yl)oxy)propyl)-12-ethyl-13-fluoro-11-methyl-4,5,6,7,9,11-hexahydropyrazolo[4′,3′:9,10][1]oxa[6]azacycloundecino[8,7,6-hi]indole-2-carboxylic acid [Example 30] |  |  |
| 0.37 µM | 0.00097 µM | 2.37 µM and 1.94 µM | 8.84 µM and 13.2 µM |  |  |  |  |  |  |  | CCc1c2c(nn1C)COCCCCn1c(C(=O)O)c(CCCOc3cccc4ccccc34)c3ccc(F)c-2c31 (single isomer, unassigned; enantiomer 1) [Example 7, 3-ethyl-4-fluoro-2-methyl-7-{3-[(naphthalen-1-yl)oxy]propyl}-2,10,11,12,13,15-hexahydro-pyrazolo[4′,3′:9,10][1,6]oxazacycloundecino[8,7,6-hi]indole-8-carboxylic acid-N-ethylethanamine salt (enantiomer 1)] | 4.6e-07 M |  |
